# Test results from patent US11090317B2, “Aminophosphinic derivatives for preventing and treating eye inflammation” (priority 2017, dated 2021).
# “Also recorded” adds a separate entry of the source.
# Key:
# cornea = experiment: Corneal inflammation by in vivo confocal microscopy in inflammatory model induced by LPS (corneal scratch); parameters: species or system mice C57Bl/6; settings: twice-daily instillation of 10 mM for 5 consecutive days; scratch + LPS 50 μg (1× or 2×); evaluated on the 5th day
# Protocol: A corneal epithelial lesion (abrasion designated “scratch” in the figures) is made on the right eye of male mice C57Bl/6, 8 weeks old, using a trephine (diameter 1.5 mm) on the anaesthetised animal (isoflurane). A drop (10 μl) of LPS (50 μg) is […] deposited on the injured area and is left in contact with the cornea until the animal awakens. The experimentalist ensures the animal awakens correctly, which occurs within two minutes following the intervention.
# The first topical treatment using a solution of PBS (phosphate buffer pH=7.4) (1×) or a solution of compound 1 (10 mM of compound 1 in a solution of PBS (1×)) was carried out 2 h after the instillation of LPS. This treatment was extended 2 times a day for 5 days. Four animal cages were studied:
# The eye inflammation of the mice was evaluated on the 5th day using a confocal microscope in vivo. This enable images to be obtained (cellular and intercellular definition) of the cornea including the corneal epithelium, the nerve plexus, the stroma and the endothelium thanks to a capsule (Tomocap)/corneal module of the apparatus placed in contact with the cornea. The morphological changes of all the cells constituting the cornea and the corneal nerves are easily observable and quantifiable. All of the animals were anaesthetised by intraperitoneal injection (ketamine 100 mg/kg and xylazine 10 mg/kg). […]
# [1] = system: ATF3 (activating transcription factor 3); experiment: ATF3 immuno-histology in trigeminal ganglion, inflammatory keratitis model induced by LPS; assay type: in vivo, mice; settings: LPS inflammation model; twice-daily instillation of 10 mM for 5 days
# Source text: (§1) ATF3 (activating transcription factor 3) is a transcription factor of the family of ATF which modulates the inflammatory response of several diseases. In physiological conditions, the primary sensory neurones express very little ATF3. An increase in the number of positive neurones for ATF-3 then underlines neuronal suffering linked to an inflammatory process. In the same way, Iba1 (ionized calcium-binding adapter molecule 1) is expressed in the microglial cells activated by the presence of macrophages and thus by an inflammatory process.
# (§2) Two hours after the final instillation of LPS, a mixture of 300 μL of ketamine […] (100 mg/kg of body weight) and xylazine (10 mg/kg of body weight, Virbac, France) was injected by intraperitoneal route to deeply anaesthetise the animals. After fixation, the trigeminal ganglia and the eyes were carefully dissected and post-fixated for 48 h in the same fixation mixture. Sections (40 μm) of the complex of the trigeminal sub-nucleus ([…]) were formed using a Vibratom (Leica Microsystems, Germany). The TG were placed in a 10% solution of sucrose in 1×PBS (overnight), then in a 30% solution of sucrose before freezing at −20° C. in a mixture of 7.5% gelatine and 10% sucrose. Sections (14 μm) were made in the cryostat for the TG and the eyes and conserved at −20° C. […]
# [2] = system: Iba1 (ionized calcium binding adaptor molecule 1); experiment: Iba1 immuno-histology in trigeminal ganglion, inflammatory keratitis model induced by LPS; assay type: in vivo, mice; settings: LPS inflammation model; twice-daily instillation of 10 mM for 5 days
# Source text: as §1, §2
# corneal epithelium = settings: topical administration, versus non-treated corneas, cited from earlier work
SMILES,eye inflammation of the corneas (confocal images) compared to PBS 1× (cornea),expression of ATF3 in the trigeminal ganglion versus PBS control group [1],Iba1 in the trigeminal ganglion (coloration of activated microglial cells expressing Iba-1) versus PBS control group [2],development of an oedema of the stroma (corneal epithelium; 12 h after treatment),infiltration of immune cells (corneal epithelium)
CC(OC(=O)N[C@@H](C)P(=O)([O-])C[C@@H](Cc1ccc(-c2ccccc2)cc1)C(=O)N[C@@H](C)C(=O)[O-])OC(=O)C(C)C.[Na+].[Na+] (some centres unmarked) [compound 1],less inflammatory,considerably reduces the expression of ATF3; also recorded: reduce significantly,considerably reduces the coloration of activated microglial cells expressing Iba-1; also recorded: reduce significantly,–,–
CN1CC[C@]23c4c5ccc(O)c4O[C@H]2[C@@H](O)C=C[C@H]3[C@H]1C5 [morphine],–,–,–,retard the development of an oedema of the stroma,very few immune cells present
